≈ marks a conversion by molar mass, not a printed value.

What all share (format): functional
Assay [1] concerns Staphylococcus aureus. The experiment in a line: Antibacterial activity against Staphylococcus aureus CJ 251.
Assay [2] relates to Staphylococcus aureus. Nature of the assay: Antibacterial activity against Staphylococcus aureus CJ 200.
In assay [3] the test system is Staphylococcus epidermidis. The experiment in a line: Antibacterial activity against Staphylococcus epidermidis CK 5.
Assay [4] has as its system Staphylococcus aureus. Nature of the assay: Antibacterial activity against Staphylococcus aureus CJ 234 R.
In a further assay the test system is Corynebacterium xerosis. The experiment in a line: Antibacterial activity against Corynebacterium xerosis FF.
In assay [5] the test system is Staphylococcus aureus. The experiment in a line: Antibacterial activity against Staphylococcus aureus CJ 288.
For assay [6], the system named is Staphylococcus aureus. Nature of the assay: Antibacterial activity against Staphylococcus aureus CJ 247.

As a reminder, the MIC is the lowest concentration found to suppress growth. Read a high MIC as a need for much substance. Consider `CC(=O)O[C@H]1C[C@@]2(C)[C@@H](C[C@@H](O)[C@H]3[C@@]4(C)CC[C@@H](O)[C@@H](C)C4CC[C@@]32C)/C1=C(\CCCCc1ccc(C2(C(F)(F)F)N=N2)cc1)C(=O)O` (stereo partly specified), for which the MIC against Staphylococcus aureus [1] came to 1 µg/mL (≈ 1.48 µM); with Staphylococcus aureus [2], 2 µg/mL (≈ 2.96 µM); in assay [3] it was 1 µg/mL (≈ 1.48 µM); against Staphylococcus aureus [4], 1 µg/mL (≈ 1.48 µM); against Corynebacterium xerosis, 0.063 µg/mL (≈ 0.0934 µM); against Staphylococcus aureus [5], 1 µg/mL (≈ 1.48 µM).

Regarding `CC(=O)O[C@H]1C[C@@]2(C)[C@@H](C[C@@H](O)[C@H]3[C@@]4(C)CC[C@@H](O)[C@@H](C)C4CC[C@@]32C)/C1=C(\CCCCc1ccc(C(=O)c2ccccc2)cc1)C(=O)O` (stereo partly specified), the MIC was 1 µg/mL (≈ 1.49 µM) against Staphylococcus aureus [1]; 4 µg/mL (≈ 5.96 µM) against Staphylococcus aureus [2]; 1 µg/mL (≈ 1.49 µM) in assay [3]; 1 µg/mL (≈ 1.49 µM) with Staphylococcus aureus [6]; 1 µg/mL (≈ 1.49 µM) against Staphylococcus aureus [4]; 0.016 µg/mL (≈ 0.0238 µM) with Corynebacterium xerosis. Besides, it took 1 µg/mL (≈ 1.49 µM) to inhibit growth in the assay with Staphylococcus aureus [5] (MIC).

For `CC(=O)O[C@H]1C[C@@]2(C)[C@@H](C[C@@H](O)[C@H]3[C@@]4(C)CC[C@@H](O)[C@@H](C)[C@@H]4CC[C@@]32C)/C1=C(\CCC=C(C)C)C(=O)O` [FUSIDIC ACID], the MIC is < 0.063 µg/mL against Staphylococcus aureus [1]; 0.063 µg/mL (≈ 0.122 µM) in the assay with Staphylococcus aureus [2]; 0.063 µg/mL (≈ 0.122 µM) in assay [3]; 0.063 µg/mL (≈ 0.122 µM) in the assay on Staphylococcus aureus [6]; < 0.063 µg/mL against Staphylococcus aureus [4]; 0.016 µg/mL (≈ 0.031 µM) in the assay on Corynebacterium xerosis. Besides, the MIC in the assay with Staphylococcus aureus [5] is < 0.063 µg/mL.

As for `CC(=O)O[C@H]1C[C@@]2(C)[C@@H](C[C@@H](O)[C@H]3[C@@]4(C)CC[C@@H](O)[C@@H](C)C4CC[C@@]32C)/C1=C(\CCCCc1ccc(N=[N+]=[N-])cc1)C(=O)O` (stereo partly specified), the MIC stood at 1 µg/mL (≈ 1.65 µM) against Staphylococcus aureus [1]; 1 µg/mL (≈ 1.65 µM) with Staphylococcus aureus [2]; 4 µg/mL (≈ 6.58 µM) in assay [3]; 1 µg/mL (≈ 1.65 µM) against Staphylococcus aureus [4]; 0.016 µg/mL (≈ 0.0263 µM) in the assay on Corynebacterium xerosis; 1 µg/mL (≈ 1.65 µM) against Staphylococcus aureus [5].

The values above are taken from ChEMBL document CHEMBL1138173, “Synthesis and biological evaluation of photoaffinity labeled fusidic acid analogues” (2006).
